Results from patent US20050288347A1, “Certain triazole-based compounds, compositions, and uses thereof” (priority 2004, published 2005).
“Also recorded” adds a separate entry of the source. Read-outs that look alike come from different tables or passages of the source.

Biological target: protein kinase
Assay: HTS ATP-utilizing enzyme assay, off-chip mobility-shift format (Caliper HTS 250)
Format: biochemical, human
Details: for Kinase: kinase(s) for which the compound exhibits protein kinase inhibitory activity, active = greater than three-sigma from the mean activity of inactive compounds
In short: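 Kinase reactions ran 2.5 h at 20 to 22 °C with test compound at 10 μM, in a HEPES pH 7.5 master buffer containing Triton X-100 and BSA. Peptide substrate and phosphorylated product separated by mobility shift; inhibition normalized to DMSO (0%) and EDTA (100%) controls, with three-sigma thresholds for hits.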

[1] = test compound 10 μM, active = activity greater than three-sigma from the mean of the predominately inactive population for that enzyme

| SMILES | Kinase (test compound 10 μM) | protein kinase against which the compound exhibits inhibitory activity (Table 3) [1] | further results |
| --- | --- | --- | --- |
| CCn1c(SCC(=O)N2CCc3ccccc3C2)nnc1-c1cc2ccccc2cc1O | DAPK1; also recorded: AURORA-A | – | – |
| COc1cc(NC(=O)CSc2nncn2N)cc(OC)c1 [2-(4-amino-4H-1,2,4-triazol-3-ylthio)-N-(3,5-dimethoxyphenyl)acetamide] | DYRK2 | – | – |
| COc1ccccc1-n1c(SCCCCc2ccccc2)nnc1-c1cccc(N(C)C)c1 | – | – | protein kinase against which the compound exhibits inhibitory activity (Table 3): MAPKAPK-3 |
| c1ccc(CCSc2nnc(-c3ccc(-c4ccccc4)cc3)[nH]2)cc1 [3-(biphenyl-4-yl)-5-(phenethylthio)-4H-1,2,4-triazole] | – | AURORA-A | – |
| c1csc(-c2nnc(SCC3CCCCC3)[nH]2)c1 [3-(cyclohexylmethylthio)-5-(thiophen-2-yl)-4H-1,2,4-triazole] | – | AURORA-A; also recorded: DYRK2 | – |
| Cc1ccc(NCc2nnc(SCc3ccc(C(C)(C)C)cc3)n2-c2ccc(C)cc2)cc1 | – | AURORA-A and SYK | – |
| CSc1nnc(COc2ccccc2C)n1Cc1ccccc1 [4-benzyl-3-(methylthio)-5-(o-tolyloxymethyl)-4H-1,2,4-triazole] | – | MSK2 | – |
| O=C(CSc1nnc(-c2ccc(O)cc2)n1-c1ccccc1)NN(Br)C(=O)c1ccccc1 | – | AURORA-A | – |
| O=C(CSc1nnc(-c2ccc(O)cc2)n1CC1CCCO1)Nc1nc2c(s1)CCCC2 (centres unmarked) | GSK3-β; also recorded: AURORA-A | – | – |
| O=C(O)CSc1nnc(-c2ccc([N+](=O)[O-])cc2)[nH]1 [2-(5-(4-nitrophenyl)-4H-1,2,4-triazol-3-ylthio)acetic acid] | GSK3-α; also recorded: GSK3-β; also recorded: DYRK2 | – | – |
| CCn1c(CNc2ccccc2Cl)nnc1SC(C)C(=O)Nc1ccc([N+](=O)[O-])cc1 (centres unmarked) | PDGFRR-α | – | – |
| Cn1c(S)nnc1CCc1nc2ccccc2[nH]1 [5-(2-(1H-benzo[d]imidazol-2-yl)ethyl)-4-methyl-4H-1,2,4-triazole-3-thiol] | GSK3-α; also recorded: GSK3-β | – | – |
| Cn1c(SCC#N)nnc1-c1ccc(O)cc1 [2-(5-(4-hydroxyphenyl)-4-methyl-4H-1,2,4-triazol-3-ylthio)acetonitrile] | GSK3-β; also recorded: GSK3-α; also recorded: DAPK1 | – | – |
| Cn1c(COc2cccc3ccccc23)nnc1SCC(=O)O | CDK2-cyclinA; also recorded: AURORA-A | – | – |
| Cc1ccc(-c2nnc(CSc3nnc(COc4ccccc4)n3-c3ccc(C)cc3)o2)cc1 | – | GSK3-α | – |
| O=C(CSc1nnc(-c2ccncc2)n1-c1ccc(F)cc1)Nc1cccc(O)c1 | AURORA-A | – | – |
| CCn1c(SCC(=O)Nc2cccc(C(C)=O)c2)nnc1-c1ccc(O)cc1 | GSK3-α | – | – |
| COc1ccc(-n2c(COc3ccc4ccccc4c3)nnc2SCCN2CCOCC2)cc1 | – | CDK2-cyclinE | – |
| Sc1nnc(CCc2nc3ccccc3[nH]2)n1-c1cccc(Cl)c1 | GSK3-α | – | – |
| CCCCSc1nnc(COc2ccc(Br)cc2)n1CC [3-((4-bromophenoxy)methyl)-5-(butylthio)-4-ethyl-4H-1,2,4-triazole] | – | CDK2-cyclinA; also recorded: AURORA-A | – |
| O=C(CSc1nncn1-c1cccnc1)Nc1cccc(C(=O)O)c1 [3-(2-(4-(pyridin-3-yl)-4H-1,2,4-triazol-3-ylthio)acetamido)benzoic acid] | AURORA-A | – | – |
| Cn1c(SCC(=O)OC2CCCCC2)nnc1-c1ccc(O)cc1 | GSK3-α | – | – |
| CCn1c(SC(C)C(=O)Nc2ccccc2C)nnc1-c1ccc([N+](=O)[O-])cc1 (centres unmarked) [2-(4-ethyl-5-(4-nitrophenyl)-4H-1,2,4-triazol-3-ylthio)-N-o-tolylpropanamide] | DAPK1 | – | – |

| SMILES | Kinase (test compound 10 μM) | protein kinase against which the compound exhibits inhibitory activity (Table 3) [1] | further results |
| --- | --- | --- | --- |
| Cn1cnnc1SCC(=O)N1c2ccccc2Sc2ccccc21 [2-(4-methyl-4H-1,2,4-triazol-3-ylthio)-1-(10H-phenothiazin-10-yl)ethanone] | LCK | – | – |
| CCOc1ccc(NCc2nnc(SC(C)C(=O)N(c3ccccc3)c3ccccc3)n2-c2ccc(OC)cc2)cc1 (centres unmarked) | FYN | – | – |
| Cc1nnc(S)n1CC1CCCO1 (centres unmarked) [5-methyl-4-((tetrahydrofuran-2-yl)methyl)-4H-1,2,4-triazole-3-thiol] | MAPKAPK-2 | – | – |
| COc1cc(-c2nnc(SCC(=O)Nc3cc([N+](=O)[O-])ccc3C)n2C)cc(OC)c1OC | MAPKAPK-2 | – | – |
| CCn1c(SCC(=O)NNC(=O)C2CCCCC2)nnc1-c1ccncc1 | – | AURORA-A | – |
| NC(=O)CSc1nnc(CNc2ccc(F)cc2)n1-c1ccccc1 | FLT-3 | – | – |
| COC(=O)c1ccccc1NC(=O)CSc1nnc(CNc2ccc(F)cc2)n1CC1CCCO1 (centres unmarked) | AURORA-A | – | – |
| CCn1c(CNc2ccc(OC)cc2)nnc1SCC(=O)Nc1ccccc1C(F)(F)F | FYN and PDGFRR-α and FLT-3 | – | – |
| CCn1c(SCC(=O)Nc2ccccc2)nnc1-c1ccc(O)cc1 | CHEK2 | – | – |
| Cn1c(CNc2ccc(F)cc2)nnc1SCc1c(Cl)cccc1Cl | – | GSK3-β; also recorded: GSK3-α | – |
| Cc1cccc(OCc2nnc(SCC(=O)N3CCCc4ccccc43)n2Cc2ccco2)c1C | AKT1 | – | – |
| COc1ccc(NCc2nnc(SCc3ccccc3)n2-c2ccc(OC)cc2)cc1 | – | PDGFRR-α and FLT-3 and FYN | – |
| Cc1ccc([N+](=O)[O-])cc1NC(=O)CSc1nnc(-c2ccc(O)cc2)n1C | GSK3-β; also recorded: GSK3-α | – | – |
| Clc1cccc(NCc2nnc(SCc3ccc(Cl)cc3Cl)n2-c2ccccc2)c1 | – | LCK | – |
| CCOC(=O)c1c(NC(=O)CSc2nnc(CNc3ccc(OC)cc3)n2C)sc(C)c1C | PDGFRR-α; also recorded: FLT-3; also recorded: AURORA-A | – | – |
| CCn1c(SCc2ccc(-c3csnn3)cc2)nnc1-c1cc(-c2ccccc2)nc2ccccc12 | – | c-TAK1 | – |
| CC(C)(C)c1ccc(CSc2nnc(COc3ccc(Cl)cc3)n2-c2ccccc2)cc1 | – | SYK | – |
| Cn1c(SCC(=O)N2CCCCCC2)nnc1-c1ccc(S(=O)(=O)N2CCCC2)cc1 | c-TAK1 | – | – |
| COc1ccc(NCc2nnc(SCC(=O)Nc3cccc(C(C)=O)c3)n2-c2ccc(Cl)cc2)cc1 | PDGFRR-α and FYN and FLT-3 | – | – |
| CCn1c(COc2ccc(Cl)c(C)c2)nnc1SCC(=O)O | MSK1 | – | – |
| O=C(CSc1nnc(-c2ccncc2)n1Cc1ccco1)Nc1cccc(I)c1 | GSK3-β and AKT3 and SRC | – | – |
| COc1ccccc1-n1c(SCc2cccc(C(=O)O)c2)nnc1-c1cccc(Cl)c1 | – | ROCK2 | – |

Second part, led by results:

| Kinase (test compound 10 μM) | protein kinase against which the compound exhibits inhibitory activity (Table 3) [1] | SMILES | further results |
| --- | --- | --- | --- |
| AKT1 | – | CCc1ccc(OCc2nnc(SCC(=O)O)n2Cc2ccccc2)cc1 [2-(4-benzyl-5-((4-ethylphenoxy)methyl)-4H-1,2,4-triazol-3-ylthio)acetic acid] | – |
| – | PDGFRR-α and GSK3-β and CDK1 | COc1ccc(C(=O)NNC(=O)CSc2nnc(CNc3cccc(Cl)c3)n2CCc2ccccc2)cc1 | – |
| MSK2 | – | Cc1cccc(NC(=O)CSc2nnc(-c3ccc(O)cc3)n2-c2ccccc2)c1C | – |
| AURORA-A | – | Cc1ccc(NC(=O)CSc2nnc(CNc3ccc(F)cc3)n2CC2CCCO2)cc1 (centres unmarked) | – |
| AURORA-A | – | COCCn1c(SCC(=O)NCc2ccc3c(c2)OCO3)nnc1-c1cc2ccccc2cc1O | – |
| AURORA-A | – | Cn1c(SCC(=O)N2c3ccccc3Sc3ccccc32)nnc1-c1cc2ccccc2cc1O | – |
| – | AURORA-A; also recorded: c-TAK1 | Ic1cccc(CSc2nnc(-c3ccccc3)[nH]2)c1 [3-(3-iodobenzylthio)-5-phenyl-4H-1,2,4-triazole] | – |
| AURORA-A | – | COC(=O)c1ccc(NC(=O)CSc2nnc(-c3ccccc3O)n2-c2ccccc2OC)cc1 | – |
| GSK3-α | – | COc1ccc(-n2c(SC(C)C(=O)Nc3ccc(C)cc3)nnc2-c2ccc(O)cc2)cc1 (centres unmarked) | – |
| – | KIT and AURORA-A and PKA | CCCN(CCC)C(=O)CSc1nnc(-c2ccccc2O)n1-c1ccccc1OC | – |
| FYN | – | CCOC(=O)c1ccc(NC(=O)CSc2nnc(COc3ccc(OC)cc3)n2CC)cc1 | – |
| CDK1 | – | Cc1cc(C)nc(SCc2nnc(SCC(=O)Nc3cccc(C(F)(F)F)c3)n2C)n1 | – |
| – | SYK | Cc1ccc(-n2c(SCc3ccc(C(=O)O)cc3)nnc2-c2ccc(Cl)cc2)cc1 | – |
| – | MAPKAPK-2 | Cn1c(Cn2nnc3ccccc32)nnc1SCC(=O)C1c2ccccc2CCc2ccccc21 | – |
| GSK3-α and CDK1 | – | COc1ccc(-n2c(S)nnc2COc2ccc3ccccc3c2)cc1 | – |
| PDGFRR-α | – | COc1ccc(NCc2nnc(SCC(=O)N3c4ccccc4Sc4ccccc43)n2-c2ccccc2)cc1 | – |
| MAPKAPK-2 and CDK1 and CDK5 | – | N#CCSc1nnc(COc2cccc3ccccc23)n1-c1ccccc1 | – |
| GSK3-β; also recorded: GSK3-α | – | COC(=O)c1sc(NC(=O)CSc2nnc(-c3ccco3)n2C)nc1C | – |
| – | AURORA-A; also recorded: GSK3-α | Cc1nnc(SCC2CCCCC2)[nH]1 [3-(cyclohexylmethylthio)-5-methyl-4H-1,2,4-triazole] | – |
| GSK3-α | – | COCCn1c(S)nnc1COc1ccc(Cl)cc1 [5-((4-chlorophenoxy)methyl)-4-(2-methoxyethyl)-4H-1,2,4-triazole-3-thiol] | – |
| HCK | – | Cc1cc(OCc2nnc(SCC(=O)O)n2Cc2ccccc2)ccc1Cl | – |
| AKT1 | – | Cc1ccc(NCc2nnc(SCC#N)n2-c2ccccc2)c(C)c1 | – |
| FYN and PRAK | – | CC(C)N(C(=O)CSc1nnc(-c2ccccc2N)n1C)C(C)C | – |
| – | PDGFRR-α and FYN | CCOc1ccc(NCc2nnc(SCCN3CCCCC3)n2-c2ccccc2)cc1 | – |
| FLT-3; also recorded: PDGFRR-α | – | O=[N+]([O-])c1ccc(OCc2nnc(S)n2-c2ccccc2)cc1 [5-((4-nitrophenoxy)methyl)-4-phenyl-4H-1,2,4-triazole-3-thiol] | – |
| CSK | – | Cn1c(SCC(=O)Nc2cccc(O)c2)nnc1-c1ccco1 | – |
